Experimental data taken from PMC12292835, “Amylin Receptor 1 Mutagenesis Revealed a Potential Role of Calcitonin Serine 29 in Receptor Interaction” (Biomedicines, 2025).
Where no end group is shown, it is not given here.

Columns and labels:
amylin receptors = settings: mutated human amylin, cell-based system; cited from earlier work
Source text: Receptor–ligand interaction studies with alanine-scanning mutagenesis have been reported for amylin receptors. Lee et al. first introduced alanine-scanning mutagenesis to calcitonin and AC413 peptides and examined the role of each amino acid in the interaction with amylin receptor 1 ECD [20]. They reported critical amino acids of peptide ligands for amylin receptor 1 ECD binding. Their results were supported by the following structural studies with the calcitonin receptor ECD and salmon calcitonin fragments. Recently, Lee S introduced alanine-scanning mutagenesis to a rat amylin ...

[1] = target: T1, wild-type amylin receptor 1 ECD (Homo sapiens, UniProt O60894+P30988); experiment: Competition binding assay with non-labeled sCT(22–32), WT; settings: competition with 10 nM FITC-sCT(22–32), receptor ECD 81 nM, 1 hour, anisotropy
T1 construct: pHLsec/hRAMP1.24–111-(GSA)3-hCTR.34–141-H6 (H-pSL005); H6 (hexahistidine) (C); made in house; host or cells: HEK293 (transient transfection, secreted, N-glycosylated)
T1 sequence (O60894 24-111): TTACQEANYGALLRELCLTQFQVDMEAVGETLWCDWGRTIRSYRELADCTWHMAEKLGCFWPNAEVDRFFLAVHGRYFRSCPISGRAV
T1 sequence (P30988 34-141): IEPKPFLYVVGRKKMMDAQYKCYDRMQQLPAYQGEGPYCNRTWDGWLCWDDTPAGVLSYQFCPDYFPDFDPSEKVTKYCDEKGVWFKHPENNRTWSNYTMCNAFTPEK
Experimental: (§1) The overall procedure of the FP binding assay with a saturation binding format was previously described. A total of 10 nM FITC-labeled sCT(22–32) and 10 nM FITC-labeled AC413(6–25) with Y25P mutation were used for the receptor–ligand binding assay. For the saturation binding format, the non-linear regression curves were generated by using user-defined equations that were previously described for affinity calculation. FITC-labeled peptide probes were incubated for 1 h at room temperature with the purified receptor protein prior to fluorescence signal measurement. A BioTek Synergy H1 microplate reader (Agilent, Santa Clara, CA, USA) was used to evaluate fluorescence polarization/anisotropy. […] When total fluorescence intensity of the FITC-labeled probes was altered with receptor binding by more than 10% from the starting fluorescence value, the anisotropy was adjusted to reflect the fluorescence change as previously described. […] PRISM 5.0 was fully functional, with the user-defined equations used predicting KD values from fluorescence polarization/anisotropy. […]
(§2) The mixture of the competitive peptide with varying concentrations, 10 nM FITC -sCT(22 –32), and the receptor ECD protein with the concentration described earlier was incubated for 1 hour. The anisotropy signal was measured by using a BioTek Synergy H1 microplate reader (Agilent, Santa Clara, CA, USA). […]

[2] = target: T2, amylin receptor 1 ECD with the E123A mutation (Homo sapiens, UniProt O60894+P30988, E123A); experiment: Competition binding assay with non-labeled sCT(22–32), E123A; settings: competition with 10 nM FITC-sCT(22–32), receptor ECD E123A 365 nM, 1 hour, anisotropy
T2 construct: pHLsec/hRAMP1.24–111-(GSA)3-hCTR.34–141.E123A-H6 (D-pJJ004); H6 (hexahistidine) (C); made in house; host or cells: HEK293 (transient transfection, secreted, N-glycosylated)
T2 sequence (O60894 24-111): as the sequence (O60894 24-111) above
T2 sequence (P30988 34-141 E123A): as the sequence (P30988 34-141) above, with E90A counted along it
Experimental: as §1, §2

[3] = target: T3, amylin receptor 1 ECD with the E123D mutation (Homo sapiens, UniProt O60894+P30988, E123D); experiment: Competition binding assay with non-labeled sCT(22–32), E123D; settings: competition with 10 nM FITC-sCT(22–32), receptor ECD E123D 53 nM, 1 hour, anisotropy
T3 construct: pHLsec/hRAMP1.24–111-(GSA)3-hCTR.34–141.E123D-H6 (D-pJJ001); H6 (hexahistidine) (C); made in house; host or cells: HEK293 (transient transfection, secreted, N-glycosylated)
T3 sequence (O60894 24-111): as the sequence (O60894 24-111) above
T3 sequence (P30988 34-141 E123D): as the sequence (P30988 34-141) above, with E90D counted along it
Experimental: as §1, §2

[4] = test system: calcitonin receptor N135A, cAMP production; settings: cited from earlier work
Experimental: (§3) Several receptor–ligand interaction studies introducing mutagenesis to calcitonin and amylin receptors are also available. Among these previous reports, an extensive receptor–ligand interaction study was reported where alanine-scanning mutagenesis was applied to the upper segment of transmembrane helix 1 (TM1) of the calcitonin receptor and its extension into the receptor ECD [31]. Although the study focused on TM1, some residues of calcitonin receptor ECD were mutated and were tested for peptide ligand interaction. When the N135 residue was mutated to alanine, the ...

[5] = test system: calcitonin receptor N135A, phosphorylation of extracellular signal-regulated kinase (ERK); settings: cited from earlier work
Experimental: as §3

[6] = cited from earlier work
Source text: (§4) Due to the inherent nature of the calcitonin receptor as the main component of the functional amylin receptor, a calcitonin peptide is used as an agonist for amylin receptors. […] Accordingly, salmon calcitonin is well-characterized as a dual agonist for calcitonin and amylin receptors and is commonly used for research targeting amylin receptors.

pancreatic β-cells = settings: in words; cited from earlier work
Source text: as §4

[7] = test system: calcitonin receptor N135A; settings: cited from earlier work
Experimental: as §3

[8] = test system: calcitonin receptor D101A; settings: cAMP production, calcitonin receptor activation, cited from earlier work
Experimental: (§5) Gingell et al. addressed the receptor interaction with human calcitonin and rat amylin by introducing mutations to the peptide-binding pocket of the calcitonin receptor and amylin receptor 1 ECDs. The peptide potency for calcitonin receptor and amylin receptor 1 activation was investigated by measuring cAMP production. Multiple residues located in the peptide-binding pocket were tested for peptide-mediated receptor activation. They reported the mutational effects of D101A and N124A that were used in the current study. Consistent with our binding results, the D101A mutation markedly decr ...

[9] = test system: calcitonin receptor and amylin receptor 1 with N124A; settings: cAMP production, in words; cited from earlier work
Source text: The N124 residue of the calcitonin receptor appeared dispensable for amylin receptor 1 activation mediated by calcitonin or amylin. The affinity decreases for receptor ECD by 8-fold and more may be insufficient to produce the potency decrease in the activation of the full-length calcitonin and amylin rec ...

[10] = test system: amylin receptor 1 with D101A; settings: cAMP production, amylin receptor 1 activation; cited from earlier work
Experimental: as §5

[11] = test system: human calcitonin and amylin receptors; settings: in words; cited from earlier work
Source text: as §4

## A5S: human amylin with mutation A5S (KCNTSTCATQRLANFLVHSSNNFGAILSSTNVGSNTY; ends and bridges not checked; cysteine pairing not given here; UniProt P10997 34-70, looked up, variant A5S)
Amylin receptors
  amylin receptor activation potency: significantly increased the amylin receptor activation potency

## Q10A: human amylin with mutation Q10A (KCNTATCATARLANFLVHSSNNFGAILSSTNVGSNTY; ends and bridges not checked; cysteine pairing not given here; UniProt P10997 34-70, looked up, variant Q10A)
Amylin receptors
  amylin receptor activation potency: significantly increased the amylin receptor activation potency

## V17A: human amylin with mutation V17A (KCNTATCATQRLANFLAHSSNNFGAILSSTNVGSNTY; ends and bridges not checked; cysteine pairing not given here; UniProt P10997 34-70, looked up, variant V17A)
Amylin receptors
  amylin receptor activation potency: significantly increased the amylin receptor activation potency

## YPRTNTGSGTP-NH2 [non-labeled sCT(22–32)]
[1]
  Ki: 891 nM
[2]
  Ki: 2510 nM
[3]
  Ki: 1230 nM

## calcitonin
[4]
  decrease of functional affinity (pKA): less than 10 fold
[5]
  decrease of functional affinity (pKA): less than 10 fold

## human amylin: peptide hormone secreted from pancreatic β-cells, 37 amino acids (KCNTATCATQRLANFLVHSSNNFGAILSSTNVGSNTY; not fully specified (C-terminus, bridges); cysteine pairing not given here; UniProt P10997 34-70, looked up)
[6]; human amylin
  aggregation: reported to form aggregates
Pancreatic β-cells
  effect of aggregates on pancreatic β-cells: harm pancreatic β-cells

## human calcitonin: peptide hormone
[7]
  effect of N135A on binding: abolished the binding
[8]; D101A
  decrease of potency: 17 fold
[9]
  effect of N124A on potency: did not significantly change the potency

## porcine calcitonin: peptide hormone (CSNLSTCVLSAYWRNLNNFHRFSGMGFGPETP; ends and bridges not checked; cysteine pairing not given here; UniProt P01259 1-32, looked up)
[7]
  effect of N135A on binding: abolished the binding

## rat amylin: rodent (rat/mouse) amylin
[10]
  decrease of potency: 68 fold
[8]; in words
  effect of D101A on potency: not significantly altered
[9]
  effect of N124A on potency: did not significantly change the potency
[6]; rodent (rat/mouse) amylin versus human amylin
  aggregation propensity: less propensity for forming aggregates than human amylin

## salmon calcitonin
[11]
  binding and receptor activation potency: strong receptor activation potency
